“And” between values parts separate entries of the source, which are not always exact repeats. Equal values may be shown once.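 Interpolation was linear, between the two tested concentrations surrounding the appropriate level; five concentrations were tested over 48 hours in 96-well plates. GI50: concentration for 50% inhibition of growth. The concentration for full growth arrest is given as TGI.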
How the values were obtained:
Assay in all cases: NCI tumour cell line growth inhibition, 48 h
[1] = tested on: TK-10 renal
[2] = tested on: U251 CNS
[3] = tested on: COLO 205 colon
[4] = tested on: OVCAR-3 ovarian
[5] = tested on: MCF7 breast
[6] = tested on: SF-539 CNS
[7] = tested on: CCRF-CEM leukemia
[8] = tested on: RPMI-8226 leukemia
[9] = tested on: A549 NSCLC
[10] = tested on: SK-MEL-5 melanoma

SMILES	GI50 [1]	TGI [1]	GI50 [2]	TGI [2]	GI50 [3]	TGI [3]	GI50 [4]	TGI [4]	GI50 [5]	TGI [5]	GI50 [6]	TGI [6]	GI50 [7]	TGI [7]	GI50 [8]	TGI [8]	GI50 [9]	TGI [9]	GI50 [10]	TGI [10]
Cn1cc(-c2cnc3ccc4ccc(CS(=O)(=O)NCc5ccccn5)cc4c(=O)c3c2)cn1	21.6 µM	> 83.1 µM	21.6 µM	> 100 µM	18.6 µM	> 55.8 µM	14.6 µM	45.8 µM	7.7 µM	> 100 µM	16.9 µM	41.2 µM	9.08 µM	> 93.8 µM	11.6 µM	> 75.2 µM	25.2 µM	> 100 µM	11.3 µM	24 µM
Cc1cc(Nc2ncnc3ccc(NC4=NC(C)(C)CO4)cc23)ccc1Oc1ccn2ncnc2c1	3.84 µM and 2.76 µM	25.1 µM and > 10 µM	13.4 µM and > 10 µM	35.7 µM and > 10 µM	14.3 µM and > 10 µM	32.3 µM and > 10 µM	14.4 µM and > 10 µM	52.6 µM and > 10 µM	13.7 µM and > 10 µM	31.5 µM and > 10 µM	15.6 µM and > 10 µM	31.2 µM and > 10 µM	15.6 µM and > 10 µM	> 95.8 µM	9.87 µM and 6.82 µM	33.5 µM and > 10 µM	14.9 µM and > 10 µM	82.9 µM and > 10 µM	9.59 µM and 9.83 µM	22.3 µM and > 10 µM
O=C(Nc1ccccc1O)c1ccc(Oc2cccc(C(=O)Nc3ccccc3O)c2)cc1	7.64 µM	30.2 µM	2.13 µM	8.16 µM	15.7 µM	29.9 µM	3.28 µM	9.86 µM	2.57 µM	11.5 µM	1.61 µM	6.3 µM	0.409 µM	9.15 µM	2.84 µM	8.78 µM	2.91 µM	16.6 µM	1.13 µM	2.85 µM
C=CCC1(O)c2cccc(NCCO)c2C(=O)c2c(NCCO)cccc21	> 100 µM	> 100 µM	> 100 µM	> 100 µM	> 100 µM	> 100 µM	> 100 µM	> 100 µM	> 100 µM	> 100 µM	> 100 µM	> 100 µM	> 100 µM	> 100 µM	> 100 µM	> 100 µM	> 100 µM	> 100 µM	> 100 µM	> 100 µM
O=C(O)c1cc2cc(OCc3ccccc3)c(OCc3ccccc3)cc2[nH]1	24 µM	70.6 µM	17.7 µM	37 µM	19.9 µM	36.1 µM	17.3 µM	31.6 µM	21.8 µM	55.1 µM	19.9 µM	44 µM	33.6 µM	> 100 µM	23 µM	68.4 µM			20.1 µM	47.3 µM
O=C(O)c1cc(N=Cc2ccccc2O)cc(C(=O)O)c1		> 100 µM		> 100 µM		> 100 µM		> 100 µM		> 100 µM		> 100 µM		> 100 µM		> 100 µM		> 100 µM		> 100 µM
COC(=O)C1(F)C(=O)NC(=O)NC1O (stereo not given)		> 100 µM		> 100 µM		> 100 µM		> 100 µM		> 100 µM		> 100 µM		> 100 µM		> 100 µM		> 100 µM		> 100 µM
COc1cccc2c1C(=O)c1c(O)c3c(c(O)c1C2=O)C[C@@](O)(C(=O)CO)C[C@@H]3OC1C[C@H](N)[C@H](O)[C@H](C)O1 (stereo not given in full)	0.177 µM		0.025 µM	2.25 µM	0.0904 µM	0.446 µM	0.167 µM		0.00926 µM	4.15 µM	0.0387 µM	0.528 µM	0.0186 µM	0.428 µM	0.0909 µM	1.28 µM	0.0355 µM	> 50 µM	0.0368 µM	0.104 µM
COc1cc(/C=C2\CCC(CN(C)C)C2=O)ccc1OC(=O)c1ccccc1 (stereo not given)		23.5 µM		29.8 µM		24.8 µM		21.3 µM		21 µM		30.4 µM		9.77 µM		9.3 µM		51.5 µM		29.3 µM
CN(C)C(=O)c1cc2cnc(Nc3ccc(-c4csc5c(=O)cc(N6CCOCC6)oc45)cc3)nc2n1C1CCCC1	0.194 µM	> 100 µM	0.2 µM	> 100 µM	0.166 µM	1.32 µM	0.228 µM		0.0881 µM	1.01 µM	0.154 µM	0.417 µM	0.205 µM	18.3 µM	0.142 µM	0.533 µM	0.213 µM	> 100 µM	0.146 µM	0.423 µM
COC(=O)[C@]12CC[C@@H](C)[C@H](C)[C@@H]1C1=CC[C@@H]3[C@@]4(C)C=C(O)C(=O)[C@@]5(C)COC(=C54)C[C@@]3(C)[C@]1(C)CC2	12.5 µM	29.8 µM	12.6 µM	30.7 µM	13.5 µM	29.6 µM	11.5 µM	24.4 µM	3.45 µM	12.3 µM	18.4 µM	44.3 µM	3.38 µM	14.9 µM	5.57 µM	29.7 µM	8.36 µM	26 µM	4.25 µM	15.3 µM
Cc1ccc2c(O)c(O)cc(NC(C)CCCN)c2n1 (stereo not given)	> 100 µM	> 100 µM	3.67 µM	14.8 µM	3.39 µM	42.5 µM	2.12 µM	5.26 µM	2.65 µM	9.82 µM	3.83 µM	17.2 µM	3.73 µM	16.8 µM	8.89 µM	> 53.2 µM	24.3 µM	> 100 µM	9.38 µM	25.3 µM
COc1ccc2c(c1)C(c1ccccc1Cl)=Nc1c(n[nH]c1C)N2	> 25 µM	> 25 µM	5.74 µM	> 25 µM	11.7 µM	> 25 µM	> 25 µM	> 25 µM	13.7 µM	> 25 µM	4.95 µM	> 18.8 µM	> 25 µM	> 25 µM	> 25 µM	> 25 µM	12.5 µM	> 25 µM	> 25 µM	> 25 µM
C/C(=N\N=C(/[Se])N1CC2CCC(CC2)C1)c1ccccn1		3.7 µM		1.51 µM		0.063 µM		1.61 µM		2.8 µM		1.2 µM		0.808 µM		0.22 µM		3.03 µM		0.433 µM
COc1cc(/C=C2\CN(C)C/C(=C\c3cc(CN4CCCCC4)c(O)c(OC)c3)C2=O)cc(CN2CCCCC2)c1O			3.1 µM	13.2 µM	1.96 µM	3.74 µM	3 µM	10.4 µM	2.93 µM	13.9 µM	2.75 µM	8.17 µM	2.77 µM	7.52 µM	3.04 µM	9.32 µM	3.76 µM	16.1 µM	13 µM	26.1 µM
O=C(O)c1ccc(N/C=C2\C(=O)c3ccccc3OC2O)cc1O (stereo not given)	36 µg/mL	106 µg/mL	17.2 µg/mL	45.1 µg/mL	30.5 µg/mL	76.4 µg/mL	8.41 µg/mL	41.9 µg/mL	12.6 µg/mL	81.8 µg/mL	16.5 µg/mL	39.1 µg/mL	13.8 µg/mL	59.6 µg/mL	2.45 µg/mL	8.67 µg/mL	55.1 µg/mL	> 150 µg/mL	17.6 µg/mL	37.6 µg/mL
N#CC1=C(N)NC(=O)NC12Nc1ccccc1S2 (stereo not given)	26.1 µM	66 µM	21.4 µM	> 55 µM	15.8 µM	> 73.1 µM	26.8 µM	> 59.9 µM	24.6 µM	> 73.5 µM	20.8 µM	> 54.9 µM	> 42 µM	> 67.6 µM	> 37 µM	> 55.7 µM	4.27 µM	> 40.4 µM	17.5 µM	33.2 µM
COc1ccc2nc3cc(Cl)ccc3c(NCCCNCCC(C)O)c2c1 (stereo not given)	0.497 µM	2.94 µM	0.495 µM	2.34 µM	0.217 µM	1.29 µM	0.368 µM	1.68 µM	0.351 µM	1.72 µM	0.345 µM	1.49 µM	0.361 µM	2.61 µM	0.575 µM	3.09 µM	0.422 µM	2.12 µM		
COc1cccc(/C=C/c2cnc3ccccc3n2)c1OC		> 100 µM		> 100 µM		> 100 µM		> 100 µM		> 100 µM		> 100 µM		> 100 µM		> 100 µM		> 100 µM		58.3 µM
c1ccc(-n2nnnc2-c2cccc3ccccc23)cc1	1.45 µM	> 100 µM	0.536 µM	> 48.1 µM	0.49 µM	3.83 µM	0.257 µM	0.627 µM	0.562 µM	> 100 µM	0.445 µM	3.43 µM	0.447 µM	> 100 µM	0.579 µM	45.7 µM	1.04 µM	> 100 µM	0.462 µM	20.2 µM
S=C1Nc2ccc(Cl)cc2C2(c3ccccc3)N3CCN=C3NN12 (stereo not given)	35.1 µM	> 100 µM	35.1 µM	> 100 µM	26.3 µM	> 100 µM	25.7 µM	55.2 µM	27.4 µM	> 100 µM	36.7 µM	> 100 µM	26.9 µM	70.7 µM	21.7 µM	57.3 µM	> 100 µM	> 100 µM	28.1 µM	45.4 µM
NS(=O)(=O)c1cccc(N=Cc2c(O)[nH]c3ccccc23)c1	> 17.7 µM	> 25 µM	> 25 µM	> 25 µM	> 25 µM	> 25 µM	> 25 µM	> 25 µM	> 25 µM	> 25 µM	> 25 µM	> 25 µM	> 25 µM	> 25 µM	> 25 µM	> 25 µM	> 25 µM	> 25 µM	> 25 µM	> 25 µM
Cc1cc(C)c(O)c(CN(C)Cc2cc(Cl)cc(Cl)c2O)c1	4.95 µM	25.6 µM	4.01 µM	17.1 µM	4.99 µM	15.3 µM	2.4 µM	8.16 µM	3.28 µM	14.3 µM	6.43 µM	25.1 µM	2.7 µM	14.8 µM	3.12 µM	23.2 µM	5.41 µM	28.5 µM	5.57 µM	18.2 µM
CCN1c2ccccc2C(Cl)(c2ccc(N(C)C)cc2)c2ccccc21	11.1 µM	29.1 µM	3.69 µM	17.4 µM	2.31 µM	7.73 µM	2.93 µM	8.53 µM	10.3 µM	30.5 µM	15.5 µM	29.2 µM	2.34 µM	17 µM	1.07 µM	4.04 µM	4.34 µM	24.5 µM	3.76 µM	15 µM
N#CCc1ncc(-c2ccc(C(F)(F)F)cc2)c(NC2CCCCCC2)n1	> 10 µM	> 10 µM	> 10 µM	> 10 µM	> 10 µM	> 10 µM	> 10 µM	> 10 µM	> 10 µM	> 10 µM	> 10 µM	> 10 µM	> 10 µM	> 10 µM	> 10 µM	> 10 µM	> 10 µM	> 10 µM	> 10 µM	> 10 µM
COc1cc2c[n+](C)c3c4ccccc4ccc3c2cc1OC (tested in a mixture with another compound)		87.3 µM	1.31 µM	6.36 µM and 16.9 µM	1.46 µM	5.02 µM and 14 µM	1.64 µM	7.41 µM and 21.4 µM	19.8 µM		1.54 µM	5.65 µM and 25 µM	2.08 µM	> 70.6 µM	1.71 µM			39.3 µM	7.6 µM	29 µM
Cc1c(C)[n+](=O)c(C)c(C)n1[O-]			> 100 µM	> 100 µM	> 100 µM	> 100 µM	> 100 µM	> 100 µM	> 100 µM	> 100 µM	> 100 µM	> 100 µM	> 100 µM	> 100 µM	> 100 µM	> 100 µM	> 100 µM	> 100 µM	> 100 µM	> 100 µM

From PubChem BioAssay (NCI)
